The record followed here is patent US11912699B2, “Tau-protein targeting compounds and associated” (Arvinas Operations, Inc., priority 2019, dated 2024).

Read-outs that look alike come from different tables or passages of the source.

The assay concerns the target T1, Tau P301L (Homo sapiens, UniProt P10636, P618L).
T1 construct: expressed in transfected cells
The assay is described as follows: In vitro tau degradation assay in CHOK1 Tau P301L cells (sarkosyl insoluble tau, WES). As to conditions: CHO-K1, relative to DMSO doxycycline control, read-out: Tau Protein Degradation effect at 1 μM. Format: cell-based. In outline:
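T-Rex CHOK1 clone D1 with doxycycline-inducible (1 μg/ml) Tau P301L treated 48 h with compound at 1 μM, doxycycline removed for the final 24 h. Sarkosyl-insoluble tau quantified by WES capillary electrophoresis with Tau1 antibody, expressed relative to DMSO doxycycline control and binned as ≤50% or >50% remaining.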

Where [1] appears, read: CHOK1 Tau P301L cells, remaining tau in sarkosyl insoluble pellet, 48 hours with test compound at 1 μM, doxycycline removed for last 24 hours.
The mark [2] stands for this setting: remaining tau protein in sarkosyl insoluble pellet, CHOK1 Tau P301L cells treated 48 hours with test compound at 1 μM, doxycycline removed for the last 24 hours.

T1 sequence (P10636 1-441 isoform P10636-8 P301L): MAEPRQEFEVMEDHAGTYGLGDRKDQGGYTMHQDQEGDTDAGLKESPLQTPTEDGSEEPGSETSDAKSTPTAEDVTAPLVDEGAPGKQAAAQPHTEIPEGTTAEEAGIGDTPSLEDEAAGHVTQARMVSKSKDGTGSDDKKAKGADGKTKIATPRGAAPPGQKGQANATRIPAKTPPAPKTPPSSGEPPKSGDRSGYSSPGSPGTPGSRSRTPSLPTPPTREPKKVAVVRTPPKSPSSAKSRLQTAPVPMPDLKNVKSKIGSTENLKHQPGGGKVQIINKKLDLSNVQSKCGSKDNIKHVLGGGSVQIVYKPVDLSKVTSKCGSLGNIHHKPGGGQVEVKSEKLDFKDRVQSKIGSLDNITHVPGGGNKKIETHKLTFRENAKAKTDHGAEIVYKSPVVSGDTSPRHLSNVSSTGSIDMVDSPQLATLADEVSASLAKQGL

As to `O=C1CCC(N2C(=O)c3ccc(N4CCN(CC5CC6(CCN(c7ncc(-c8ccc9c%10cnccc%10n(C(F)F)c9c8)cc7F)CC6)C5)CC4)cc3C2=O)C(=O)N1` (centres unmarked) [Compound 614, 5-(4-((7-(5-(5-(difluoromethyl)-5H-pyrido[4,3-b]indol-7-yl)-3-fluoropyridin-2-yl)-7-azaspiro[3.5]nonan-2-yl)methyl)piperazin-1-yl)-2-(2,6-dioxopiperidin-3-yl)isindoline-1,3-dione], the remaining activity at 1 µM under setting [1] is greater than 50%. As for `COc1ccc2nc(/C=C/C=C/c3ccc(OCCOCCOc4ccc5c(c4)C(=O)N(C4CCC(=O)NC4=O)C5=O)nc3)sc2c1` (centres unmarked) [Compound 626, 2-(2,6-dioxopiperidin-3-yl)-5-(2-(2-((5-((1E,3E)-4-(6-methoxybenzo[d]thiazol-2-yl)buta-1,3-dien-1-yl)pyridin-2-yl)oxy)ethoxy)ethoxy) isoindoline-1,3-dione], the remaining activity at 1 µM under setting [1] is less than 50%. With `COc1ccc2nc(/C=C/C=C/c3ccc(OCCOCCOCCOCCOc4ccc5c(c4)C(=O)N(C4CCC(=O)NC4=O)C5=O)nc3)sc2c1` (centres unmarked) [Compound 628, 2-(2,6-dioxopiperidin-3-yl)-5-(2-(2-(2-(2-((5-((1E,3E)-4-(6-methoxybenzo[d]thiazol-2-yl)buta-1,3-dien-1-yl)pyridin-2-yl)oxy)ethoxy)ethoxy)ethoxy)ethoxy) isoindoline-1,3-dione], the remaining activity at 1 µM under setting [1] was less than 50%. Regarding `O=C1CCC(N2C(=O)c3ccc(N4CCN(CCC5CCN(Cc6ncc(-c7ccc8c9cnccc9n(C(F)F)c8c7)cc6F)CC5)CC4)cc3C2=O)C(=O)N1` (centres unmarked) [Compound 632, 5-(4-(2-(1-((5-(5-(difluoromethyl)-5H-pyrido[4,3-b]indol-7-yl)-3-fluoropyridin-2-yl)methyl)piperidin-4-yl)ethyl)piperazin-1-yl)-2-(2,6-dioxopiperidin-3-yl)isoindoline-1,3-dione], the remaining activity at 1 µM under setting [1] is less than 50%. Same read-out and setting: for `O=C1CCC(N2C(=O)c3ccc(N4CCC(CCN5CCN(C6CCN(c7ccc8c9cnccc9n(C(F)F)c8c7)CC6)CC5)CC4)cc3C2=O)C(=O)N1` (centres unmarked) [Compound 633, 5-(4-(2-(4-(1-(5-(difluoromethyl)-5H-pyrido[4,3-b]indol-7-yl)piperidin-4-yl)piperazin-1-yl)ethyl)piperidin-1-yl)-2-(2,6-dioxopiperidin-3-yl)isoindoline-1,3-dione] the value was less than 50%; for `CN1CCc2c([nH]c3cc(-c4cnc(N5CCC(CCN6CCN(c7ccc8c(c7)C(=O)N(C7CCC(=O)NC7=O)C8=O)CC6)CC5)c(F)c4)ccc23)C1` (centres unmarked) [Compound 634, 2-(2,6-dioxopiperidin-3-yl)-5-(4-(2-(1-(3-fluoro-5-(2-methyl-2,3,4,9-tetrahydro-1H-pyrido[3,4-b]indol-7-yl)pyridin-2-yl)piperidin-4-yl)ethyl)piperazin-1-yl)isoindoline-1,3-dione], less than 50%; for `COc1cc(N2CCN(CCC3CCN(c4ncc(-c5ccc6c7cnccc7n(C(F)F)c6c5)cc4F)CC3)CC2)cc2c1C(=O)N(C1CCC(=O)NC1=O)C2=O` (centres unmarked) [Compound 635, 6-(4-(2-(1-(5-(5-(difluoromethyl)-5H-pyrido[4,3-b]indol-7-yl)-3-fluoropyridin-2-yl)piperidin-4-yl)ethyl)piperazin-1-yl)-2-(2,6-dioxopiperidin-3-yl)-4-methoxyisoindoline-1,3-dione], less than 50%. On the same count and under the same terms, for `O=C1CCC(N2C(=O)c3ccc(OCCC4CCN(C[C@H]5C[C@H](Oc6ncc(-c7ccc8c9cnccc9n(C(F)F)c8c7)cc6F)C5)CC4)cc3C2=O)C(=O)N1` (some centres unmarked) [Compound 636, 5-(2-(1-(((1r,3r)-3-((5-(5-(difluoromethyl)-5H-pyrido[4,3-b]indol-7-yl)-3-fluoropyridin-2-yl)oxy)cyclobutyl)methyl)piperidin-4-yl)ethoxy)-2-(2,6-dioxopiperidin-3-yl)isoindoline-1,3-dione] the value was greater than 50%.

In the case of `CC(C)N(C1CCN(c2ncc(-c3ccc4c5cnccc5n(C(F)F)c4c3)cc2F)CC1)[C@H]1C[C@H](Oc2ccc3c(c2)C(=O)N(C2CCC(=O)NC2=O)C3=O)C1` (some centres unmarked) [Compound 638], the remaining activity at 1 µM under setting [1] is less than 50%. `O=C1CCC(N2C(=O)c3cc(F)c(N4CCCN(CCC5CCN(c6ncc(-c7ccc8c9cnccc9n(C(F)F)c8c7)cc6F)CC5)CC4)cc3C2=O)C(=O)N1` (centres unmarked) [Compound 639, 5-(4-(2-(1-(5-(5-(difluoromethyl)-5H-pyrido[4,3-b]indol-7-yl)-3-fluoropyridin-2-yl)piperidin-4-yl)ethyl)-1,4-diazepan-1-yl)-2-(2,6-dioxopiperidin-3-yl)-6-fluoroisoindoline-1,3-dione]: the remaining activity at 1 µM under setting [1] is less than 50%. Turning to `O=C1CCC(N2C(=O)c3cc(F)c(N4CCC(CN5CC6(C5)CN(C[C@H]5C[C@H](Oc7ccc(-c8ccc9c%10cnccc%10n(C(F)F)c9c8)cn7)C5)C6)CC4)cc3C2=O)C(=O)N1` (some centres unmarked) [Compound 640, 5-(4-((6-(((1r,3r)-3-((5-(5-(difluoromethyl)-5H-pyrido[4,3-b]indol-7-yl)pyridin-2-yl)oxy)cyclobutyl)methyl)-2,6-diazaspiro[3.3]heptan-2-yl)methyl)piperidin-1-yl)-2-(2,6-dioxopiperidin-3-yl)-6-fluoroisoindoline-1,3-dione], the remaining activity at 1 µM under setting [1] was less than 50%. `O=C1CCC(N2C(=O)c3cc(N4CCN(CCC5CCN(c6ncc(-c7ccc8c9cnccc9n(C(F)F)c8c7)cc6F)CC5)CC4)cc(C(F)F)c3C2=O)C(=O)N1` (centres unmarked) [Compound 641, 4-(difluoromethyl)-6-(4-(2-(1-(5-(5-(difluoromethyl)-5H-pyrido[4,3-b]indol-7-yl)-3-fluoropyridin-2-yl)piperidin-4-yl)ethyl)piperazin-1-yl)-2-(2,6-dioxopiperidin-3-yl)isoindoline-1,3-dione]: the remaining activity at 1 µM under setting [1] is less than 50%. For the compound `O=C1CCC(N2C(=O)c3cc(F)c(N4CC5(CN(CCC6CCN(c7ncc(-c8ccc9c%10cnccc%10n(C(F)F)c9c8)cc7F)CC6)C5)C4)cc3C2=O)C(=O)N1` (centres unmarked) [Compound 642, 5-(6-(2-(1-(5-(5-(difluoromethyl)-5H-pyrido[4,3-b]indol-7-yl)-3-fluoropyridin-2-yl)piperidin-4-yl)ethyl)-2,6-diazaspiro[3.3]heptan-2-yl)-2-(2,6-dioxopiperidin-3-yl)-6-fluoroisoindoline-1,3-dione], the remaining activity at 1 µM under setting [1] was less than 50%. The same measure, in the same setting: as for `O=C1CCC(N2C(=O)c3cc(F)c(OCCN4CCC(O[C@H]5C[C@@H](N6CCC(c7ccc8c9cnccc9n(C(F)F)c8c7)CC6)C5)CC4)cc3C2=O)C(=O)N1` (some centres unmarked) [Compound 644], the figure is less than 50%; as for `O=C1CCC(N2C(=O)c3cc(F)c(N4CCN(CCC5CCN(c6ncc(-c7c(F)cc8c9cnccc9n(CC(F)(F)F)c8c7F)cn6)CC5)CC4)cc3C2=O)C(=O)N1` (centres unmarked) [Compound 645, 5-(4-(2-(1-(5-(6,8-difluoro-5-(2,2,2-trifluoroethyl)-5H-pyrido[4,3-b]indol-7-yl)pyrimidin-2-yl)piperidin-4-yl)ethyl)piperazin-1-yl)-2-(2,6-dioxopiperidin-3-yl)-6-fluoroisoindoline-1,3-dione], less than 50%; as for `O=C1CCC(N2C(=O)c3cc(F)c(OCCN4CC5(C4)CN(C[C@H]4C[C@H](Oc6ncc(-c7ccc8c9cnccc9n(C(F)F)c8c7)cc6F)C4)C5)cc3C2=O)C(=O)N1` (some centres unmarked) [Compound 646, 5-(2-(6-(((1r,3r)-3-((5-(5-(difluoromethyl)-5H-pyrido[4,3-b]indol-7-yl)-3-fluoropyridin-2-yl)oxy)cyclobutyl)methyl)-2,6-diazaspiro[3.3]heptan-2-yl)ethoxy)-2-(2,6-dioxopiperidin-3-yl)-6-fluoroisoindoline-1,3-dione], less than 50%. Same read-out and setting: as for `CN1CCc2[nH]c3cc(-c4cnc(N5CCC(CCN6CCN(c7cc8c(cc7F)C(=O)N(C7CCC(=O)NC7=O)C8=O)CC6)CC5)c(F)c4)ccc3c2C1` (centres unmarked) [Compound 647, 2-(2,6-dioxopiperidin-3-yl)-5-fluoro-6-(4-(2-(1-(3-fluoro-5-(2-methyl-2,3,4,5-tetrahydro-1H-pyrido[4,3-b]indol-7-yl)pyridin-2-yl)piperidin-4-yl)ethyl)piperazin-1-yl)isoindoline-1,3-dione], the figure is greater than 50%. On to `O=C1CCC(N2C(=O)c3ccc(N4CCN(CCC5CCN(c6ncc(-c7ccc8c9cncc(F)c9n(C(F)F)c8c7)cc6F)CC5)CC4)cc3C2=O)C(=O)N1` (centres unmarked) [Compound 652, 5-(4-(2-(1-(5-(5-(difluoromethyl)-4-fluoro-5H-pyrido[4,3-b]indol-7-yl)-3-fluoropyridin-2-yl)piperidin-4-yl)ethyl)piperazin-1-yl)-2-(2,6-dioxopiperidin-3-yl)isoindoline-1,3-dione], for which the remaining activity at 1 µM under setting [2] is less than 50%. The same measure, in the same setting: for `CN(C)c1cccc2cnc(-n3ccc4cc(N5CCC(CCN6CCN(c7cc8c(cc7F)C(=O)N(C7CCC(=O)NC7=O)C8=O)CC6)CC5)ncc43)cc12` (centres unmarked) [Compound 653, 5-(4-(2-(1-(1-(5-(dimethylamino)isoquinolin-3-yl)-1H-pyrrolo[2,3-c]pyridin-5-yl)piperidin-4-yl)ethyl)piperazin-1-yl)-2-(2,6-dioxopiperidin-3-yl)-6-fluoroisoindoline-1,3-dione] the value was less than 50%; for `O=C1CCC(N2C(=O)c3ccc(N4CCN(CCC5CCN(c6ccnc(Nc7ccc8ncccc8n7)c6)CC5)CC4)cc3C2=O)C(=O)N1` (centres unmarked) [Compound 656, 5-(4-(2-(1-(2-((1,5-naphthyridin-2-yl)amino)pyridin-4-yl)piperidin-4-yl)ethyl)piperazin-1-yl)-2-(2,6-dioxopiperidin-3-yl)isoindoline-1,3-dione], less than 50%.
